Assays:
[1] = test system: bone marrow-derived macrophages (BMMs); experiment: Activated immune test: ARG1 activity / M2 polarization in IL-4-stimulated BMMs; assay type: cell-based, mouse; conditions: FIG. 1C, FIG. 2
[2] = test system: bone marrow-derived macrophages (BMMs); experiment: as above; assay type: cell-based, mouse; conditions: for inhibition of the expression of arginase induced by IL-4 in macrophages: BMMs pretreated with drug (1 μM), IL-4 stimulation 12 h, absorbance at 540 nm, FIG. 1
Protocol: Activated immune test: bone marrow-derived macrophages (BMMs), as primary cells isolated from bone marrow and subjected to induced culture that can well reflect functions of the macrophages, are commonly used cells to study the functions of the macrophages. A mouse femur bone marrow was isolated and cultured in a medium containing an mCSF factor for 6-7 d to obtain mature BMMs; stimulation with IL-4 for 12 h can induce polarization of the BMMs to an immunosuppressive M2 type with high expression of ARG1; after the ARG1 protein was extracted, arginine hydrolysis was conducted in vitro, and color development was further conducted by reacting α-isonitrosopropiophenone with a hydrolyzate urea; an absorbance was measured at a wavelength of 540 nm as a marker of an ARG1 activity. A specific process was as follows: cells were pretreated with drugs (1 μM) (including the CPLD, CPLL, TBYA, MDK, HMD, compounds 1-3 and compounds 5-7); IL-4 stimulation was conducted for 12 h, followed by washing with PBS, and cells were lysed with a lysis buffer containing a protease inhibitor, and a total cell protein was obtained; after adding […] to 0.4 mM Mn^2, the total cell protein was heated at 55° C. for 10 min to fully activate an arginase ARG1. 0.5 mM arginine was added for incubation at 37° C. for 1 h to 2 h to fully hydrolyze the arginine. An acid solution containing sulfuric acid and phosphoric acid was added to stop the reaction, a 9% α-isonitrosopropiophenone ethanol solution was added, followed by heating at 95° C. for 15 min to 30 min to develop color.

[3] = test system: melanoma; experiment: CD8+ T cell-depleted melanoma model (anti-CD8 antibodies); assay type: in vivo, mice; conditions: FIG. 5M to N
Source text: (§1) Further immunofluorescence staining experiments also find that the CPLD can increase the proportion of CD8 T cells and promote the expression of Granzyme B (L). Further, mice were continuously injected with anti-CD8 antibodies to delete CD8+ T cells in the mice, to construct a melanoma model, followed by investigation of an anti-tumor activity of the compounds.

[4] = test system: tumor; experiment: nude mouse tumor model (CPLD); assay type: in vivo; conditions: FIG. 5M to N
[5] = test system: CD8+ T cells and other immune cells in the tumor; experiment: FACS analysis / intracellular staining of immune cells in the tumors; assay type: in vivo, mouse
Source text: Validation of improving and enhancing CD8^+ T cell function: through FACS analysis, the test results of compound 1 are shown in FIG. 3. […] In addition, the compound 1 is able to down-regulate a proportion of CD206^+ macrophages (FIG. 4).
as §1

[6] = test system: CD8 T cells; experiment: immunofluorescence staining of tumors; assay type: in vivo, mouse; conditions: FIG. 5L
Source text: as §1

19′-hydroxymelodinineK [HMD]
inhibition of M2 polarization of the macrophages, concentration dependence [1]: inhibit M2 polarization of the macrophages in a concentration-dependent manner | inhibition of the expression of arginase induced by IL-4 in macrophages [2]: significantly inhibit

CC[C@@]12C=CCN3CC[C@]4(C(=C(C(=O)OC)C1)Nc1cc5c(cc14)[C@H]1[C@@H](O5)[C@H](O)[C@]4(CC)CC(C(=O)OC)=C5Nc6c(cc(O)c(OC)c6OC)[C@@]56CCN1[C@H]46)[C@H]32 [CPLD, conophyllidine]
anti-tumor effect [3]: significantly reduced | anti-tumor effect [4]: significantly reduced | effect on CD4 T cells ([5]; FACS analysis): no significant effect | effect on Treg cells (proportion) ([5]; FACS analysis): no effect | proportion of CD8+ T cells in the tumor ([5]; FACS analysis): significantly increase | expression of Granzyme B in CD8+ T cells ([5]; intracellular staining): enhance | expression of IFNγ in CD8+ T cells ([5]; intracellular staining): enhance | expression of TNFα in CD8+ T cells ([5]; intracellular staining): enhance | function of the CD8+ T cells ([5]; intracellular staining): promote | inhibition of M2 polarization of the macrophages, concentration dependence [1]: inhibit M2 polarization of the macrophages in a concentration-dependent manner | expression of Granzyme B [6]: promote | proportion of CD8 T cells [6]: increase | inhibition of the expression of arginase induced by IL-4 in macrophages [2]: significantly inhibit

CC[C@@]12CC(C(=O)OC)=C3Nc4cc5c(cc4[C@@]34CCN(C[C@H]3O[C@H]31)[C@@H]24)[C@@H]1[C@H](O5)[C@@H](O)[C@@]2(CC)CC(C(=O)OC)=C3Nc4c(cc(O)c(OC)c4OC)[C@@]34CCN1[C@@H]24 [CPLL, conophylline]
inhibition of M2 polarization of the macrophages, concentration dependence [1]: inhibit M2 polarization of the macrophages in a concentration-dependent manner | inhibition of the expression of arginase induced by IL-4 in macrophages [2]: significantly inhibit

Ibogabisindole [reference compound]
activity of inhibiting M2 polarization in macrophages ([2]; comparison substances lacking the furan-aspidospermine dimer skeleton): neither the furan-ringed aspidospermine, Corynantheine, nor the furan-ringed aspidospermine, Ibogabisindole, have the activity

melodinine K [MDK]
inhibition of M2 polarization of the macrophages, concentration dependence [1]: inhibit M2 polarization of the macrophages in a concentration-dependent manner | inhibition of the expression of arginase induced by IL-4 in macrophages [2]: significantly inhibit

taberyunine A [TBYA]
inhibition of M2 polarization of the macrophages, concentration dependence [1]: inhibit M2 polarization of the macrophages in a concentration-dependent manner | inhibition of the expression of arginase induced by IL-4 in macrophages [2]: significantly inhibit

Source: patent US12171835B2, “Furan-aspidospermine dimer or pharmaceutically acceptable salt thereof, and preparation method, use and pharmaceutical composition” (Kunming Inst. of Botany, Chinese Acad. of Sciences, priority 2021, dated 2024)
